Results: patent publication EP0945138A1, “Transfection particles” (Université Louis Pasteur de Strasbourg, priority 1997, dated 1999)
Values belong to the molecule of their own block, whether it stands above or below them.

Tests used:
Format in all cases: physicochemical
[1] = Determination of the critical micelle concentration (c.m.c.) with a Langmuir balance, without DNA; settings: for CMC / CMC without DNA: MES buffer 20 mM pH 6 containing 10 mM DTT; for c.m.c.: n-alkyl esters of cysteine by chain length, Langmuir balance, 20 mM MES buffer, pH 6
Description: Clean monomolecular DNA collapse is generally expected only for detergent concentrations below the critical micelle concentration (c.m.c.). Several n-alkyl esters of cysteine were synthesized by DMAP-catalyzed dicyclohexylcarbodiimide (DCC) dehydration and their c.m.c.'s were determined with a Langmuir balance (20 mM MES buffer, pH 6), providing the following results (n-alkyl chain length / c.m.c.): dodecane / 15 µM; undecane / 80 µM; decane / 320 µM; octane /> 2000 µM. Typical working plasmid concentrations for gene delivery experiments being in the 50 µM range, the decane chain is a safe choice. The weakly basic nature of the cysteine ester primary amine function (pKa= 6.8) is insufficient for simultaneous DNA binding (which requires a protonated detergent) and reasonable thiol oxidation rates in slightly basic medium. The amine function was therefore converted into a highly basic guanidine which is known to interact strongly with DNA (C10 -CG+, Fig. 2).
(§1) i) c.m.c. of a detergent with C8, C10, C11 and C12 cysteine Measurement of the c.m.c. was acomplished with a Langmuir balance in a MES buffer (20 mM pH 6) containing 10 mM DTT. When representing the surface tension as a logarithmic function of the detergent concentration a break at the c.m.c. was observed (Fig. 10). Applying this method c.m.c.'s of the compounds having different chain length (C8, C10, C11, C12) were determined.

pCMV-luc plasmid DNA = assay: Agarose gel electrophoresis: physical and chemical stability of the complexes; settings: 1% agarose gel, 40 mM Tris-acetate buffer pH 8
Description: In a series of experiments, the reversibility of complex formation as well as the stability of complexed DNA towards degradation were assessed by electrophoresis (Fig. 5). […] Yet the cationic lipid/DNA particles could be destroyed either with excess sodium dodecyl sulfate detergent (SDS, lane 3) or by converting the lipid back to the original C10 -CG+ detergent with excess reducing dithiothreitol (DTT, lane 4). Serum nucleases present in cell culture medium rapidly degrade supercoiled plasmid DNA (lanes 1 and 8) into a smear of fragments with many nicks (lane 5).
1% agarose gel electrophoresis (90 min at 8 V/cm in 40 mM Tris-acetate buffer pH 8) of 20 µl samples containing 0.4 µg (lanes 1-4) or 0.2 µg (lanes 5-8) pCMV-luc plasmid DNA. Complexes were made by addition of a 100-fold concentrated C10 -C^G+ detergent solution (90 µM final concentration) to a solution of plasmid (60 µM) in HEPES buffer (15 mM, pH 7.4). The solution was gently mixed once and left to oxydize for 24 h. Lane 1: 60 µM plasmid DNA. Lane 2: 60 µM oxydized (C10 -C^G+)2/DNA complexes. Lane 3: as lane 2 in 3 mM final sodium dodecylsulfate before loading. Lane 4: as lane 2 in 6 mM dithiothreitol before loading. Lane 5: 60 µM plasmid incubated for 1 h at 37 °C with an equivalent volume of DMEM cell culture medium containing 10% serum. Lane 6: 60p µ M oxydized (C10 -C^G+)2/DNA complexes incubated as lane 5. […]

pCMVluc plasmid DNA = assay: Oxidation rate of cysteine detergent into cystine lipid (free thiol, Ellman's reagent) with and without template DNA; settings: 90 µM detergent, TrisHCl 15 mM pH 8.4 saturated with oxygen, with 60 µM plasmid DNA versus without
Description: Oxidative detergent dimerization was expected to be prone to a template effect of DNA (Fig. 1). Fast intra-complex reaction is a key aspect to formation of small and stable particles since extensive detergent dimerization into lipid prior to DNA binding would bring the system back to a classical cationic lipid/DNA complex formation/aggregation process. Enhanced air oxidation rate was indeed observed in the presence of DNA (Fig. 3).
The stock buffer solution (TrisHCl 15 mM pH 8.4) was saturated with oxygen by three vacuum/oxygen atmosphere cycles. C10 -C^G+ was injected from a concentrated stock solution to a final concentration of 90 µM. For each time point, a 0.5 ml aliquot was removed and mixed with 0.5 ml 2XEllman's reagent. The remaining free thiol was quantitated spectrophotometrically according to Riddles et al. (1979 ). For the template experiment, pCMVluc plasmid DNA was added to a final concentration of 60 µM before addition of the detergent.

calf thymus DNA [2] = assay: Determination of the c.m.c. with a Langmuir balance, buffer containing DNA; settings: buffer containing calf thymus DNA at 30 µM bp
Description: as §1
ii) c.m.c. of C10 and C11 cysteine with and without DNA. In an analogous manner as above the c.m.c. value of C10 cysteine and C11 cysteine was determined, the buffer containing calf thymus DNA at a concentration of 30 µM bp (Fig. 11A, B).

calf thymus DNA [3] = assay: Determination of thiol functions of SC2 with Ellman's reagent during DNA complexation; settings: after 10 min, no oxygen except that in the water
calf thymus DNA [4] = assay: UV spectroscopy of spermine or SC2 particles at raised NaCl concentration; settings: 76 µM DNA bases; for absorption at 330 nm as compared to the maximum optical density at 25 mM NaCl: 65 mM SC2
Description: The characterisation of the formed particles by UV spectroscopy was performed for different reasons. DNA in solution has a characteristic absorption spectrum between 240 and 310 nm. The absorption (optical density) has a maximum at 260 nm and 0 towards 310 nm. A change in DNA conformation should change the profile of the absorption spectrum. Moreover, the formation of particles results in an enhancement of the diffusion which can be perceived in UV by an enhancement of optical density.
Calf thymus DNA was complexed with spermine under conditions optimal for obtaining toroid structures as described by Naroditsky et al. (76 µM DNA bases, 65 mM spermine, 25 mM NaCl).

Structure (SMILES): CCCCCCCCOC(=O)[C@@H](N)CS [C8]
CMC [1]: > 2000 µM
c.m.c. [1]: > 2000 µM

Structure (SMILES): CCCCCCCCCCNC(=O)C(CS)NC(=N)N (stereo not drawn) [C10 -CG+, Guanidyl-cysteine-decylamide]
DNA migration / stability during electrophoresis (pCMV-luc plasmid DNA): unable to retard DNA migration
oxydation rate into cystine lipid (pCMVluc plasmid DNA): faster in the presence of template DNA

Structure (SMILES): CCCCCCCCCCOC(=O)[C@@H](N)CS [C10]
CMC [1]: 320 µM
CMC without DNA [1]: 320 µM
c.m.c. [1]: 320 µM
CMC with DNA (calf thymus DNA [2]): 50 µM

Structure (SMILES): NCCCNCCCCNCCCN [spermine, reference compound]
observed UV spectrum after raising NaCl (calf thymus DNA [4]; NaCl raised to 100 mM, 65 mM spermine): identical with the spectrum of the DNA that had been observed before complexation with spermine

The remaining lines, values ahead:

CMC [1]: 80 µM
CMC without DNA [1]: 80 µM
c.m.c. [1]: 80 µM
CMC with DNA (calf thymus DNA [2]): 32 µM
Structure (SMILES): CCCCCCCCCCCOC(=O)[C@@H](N)CS [C11]

CMC [1]: 15 µM
c.m.c. [1]: 15 µM
Structure (SMILES): CCCCCCCCCCCCOC(=O)[C@@H](N)CS [C12]

thiol groups oxydised (calf thymus DNA [3]): 50%
absorption at 330 nm as compared to the maximum optical density at 25 mM NaCl (calf thymus DNA [4]; at 100 mM NaCl, raised one and a half hours after mixing): 81%
absorption at 330 nm as compared to the maximum optical density at 25 mM NaCl (calf thymus DNA [4]; at 150 mM NaCl): 71%
Structure (SMILES): NC(CS)C(=O)NCCCNCCCCNCCCNC(=O)C(N)CS (stereo not drawn) [SC2, spermine-N1, N12-bis-cysteineamide]
